# Data as given in patent US11370769B2, “TRPC5 inhibitors and methods of using same” (BOARD OF REGENTS OF THE UNIVERSITY OF NEBRASKA, priority 2017, dated 2022).
# System: AT1R Tg rats
# Experiment: AT1R Tg rat model of progressive FSGS
# Type: in vivo
# Procedure: Animals and chemicals: Littermates of wild-type (WT) and AT1R TgNeph-hAT1R/185 transgenic (AT1R Tg) rats were housed under a controlled environment with a 12-hour light-dark cycle and access to food and water ad libitum, unless otherwise described. All animal experiments were performed in accordance to the guidelines established and approved by the Animal Care and Use Committee at Brigham and Women's Hospital, Harvard Medical School (Animal Protocol No. 01538). AT1R Tg rats were placed in the Onset cohort when measured proteinuria was >5 mg/day (at approximately 12 weeks of age) on two separate 24-hour urine collections. AT1R Tg rats were placed in the Advanced cohort when measured proteinuria was >25 mg/day (at approximately 18 weeks of age) on two separate 24-hour urine collections. These thresholds were determined after detailed histologic and phenotypic characterization of AT1R Tg rats compared to WT littermates (all combined, n=91 WT rats and n=122 AT1R Tg rats were studied). The Dahl salt-sensitive (S) inbred strain is maintained at University of Mississippi Medical Center (UMMC) and was originally obtained from University of Toledo-College of Medicine (SS/Jr). All animal experiments performed at UMMC were in accordance to the guidelines established and approved by the Institutional Animal Care and Use Committee. Animals used for this studied were provided either low-salt diet [TD7034, 0.3% NaCl and/or high-salt diet [TD94217, 2.0% NaCl] from Harlan Teklad, Madison, Wis. For onset study, at 4 weeks of age, groups of age-matched male S were weaned to the low-salt diet and divided into two groups: vehicle (n=8) and AC1903 groups (n=8). At 6 weeks of age, both groups were placed on the high-salt diet and concurrently treated with either vehicle or AC1903 for 1-week (Onset). For Advanced study, similarly at 4 weeks of age, groups of age-matched male S were weaned to the low-salt diet and divided into two groups: vehicle (n=9) and AC1903 groups (n=11). At 6 weeks of age, both groups were placed on the high-salt diet. At week 7, concurrent with high-salt diet, animals were treated with either vehicle or AC1903 for 1-week (Advanced). At the conclusion of each study, animals were initially anesthetized under 2-3% isoflurane/O2 gas, a catheter attached to a fluid filled pressure transducer was placed in the aorta, isoflurane gas was reduced to 1.5%, and mean arterial pressure was measured for ˜5 min period using PowerLab 4/30 system (ADI Instruments, Co) as done previously. All chemicals were purchased from Sigma-Aldrich unless otherwise described.
# Chemical preparation and IP administration: ML204 and AC1903 were prepared from powder in a single batch for each in vivo experiment to avoid variability. Immediately prior to injections, ML204 or AC1903 solution was placed on a heated shaker at 48° C. and 800 RPM. Vehicle was prepared in the same fashion. Injection volume was determined by body weight (2 mL vehicle/compound per kg body weight). Body weight was measured at the time of injection.
# Urine collection and assay: For urine collections, rats were housed individually in a metabolic cage supplied with food and water. Urine was collected into a 50 mL falcon tube for 24 hours. Total urine volume was measured and then centrifuged at 3,200 rcf for 10 min at 4° C. Albumin quantification was done according to previously published protocol (11), involving multiple dilutions of urine from each animal compared to Bovine Serum Albumin (BSA) standards. Coumassie Blue stained gels were quantified by densitometry using ImageJ software. As an additional control, the rat ELISA Albumin kit (Exocell) was used for albumin quantification according to the manufacturer's recommendations and yielded the same results. Urine protein was measured using QuanTtest® Red Total Protein Assay System (Quantimetrix, Redondo Beach, Calif.) and expressed as mg protein/24 hours. […]
SMILES,numbers of podocytes per glomerulus (AC1903-treated AT1R Tg rats),BUN (AC1903 treatment),body weight (AC1903 treatment),creatinine (AC1903 treatment),"podocyte numbers compared to vehicle treated controls (Advanced, AC1903 50 mg/kg)","pseudocyst formation (Advanced, AC1903 50 mg/kg)","proteinuria (Advanced, AC1903 50 mg/kg twice daily i.p. for 7 days)","proteinuria progression (Advanced cohort, 25 mg/kg twice daily i.p., at 7 days and 14 days)","podocyte pseudocyst formation (Advanced, ML204)","podocyte numbers (morphometric analysis) (Advanced, ML204 vs PBS-treated Tg rats)",BUN (ML204 treatment),body weight (ML204 treatment),creatinine (ML204 treatment),"proteinuria (Onset cohort, ML204 twice daily i.p. for 7 days)"
c1ccc(Cn2c(NCc3ccco3)nc3ccccc32)cc1 [AC1903],approximately 120 podocytes/glom,did not affect,did not affect,did not affect,preserved numbers of podocytes,significant reduction in pseudocyst formation,sufficient to suppress severe proteinuria,–,–,–,–,–,–,–
"Cc1cc(N2CCCCC2)nc2ccccc12 [ML204, reference compound]",–,–,–,–,–,–,–,suppressed progression of proteinuric disease,prevented pseudocyst formation,prevented podocyte loss,did not affect,did not affect,did not affect,complete suppression of proteinuria down to baseline levels
